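Dose response: 5 concentrations. Exposure: 48 h. Format: 96-well plates. Endpoint: linear interpolation; highest concentration if not reached. GI50 = concentration required for 50% inhibition of growth.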 Activity calls are given as the source filed them. No stated cut-off is given here; in the data, active = GI50 up to about 1.1 µM and inactive = higher.
Columns and labels:
Experiment in all cases: NCI tumour cell line growth inhibition, 48 h
[1] = system: M19-MEL
[2] = system: HL-60
[3] = system: TK-10
[4] = system: HOP-92
[5] = system: CAKI-1
[6] = system: M14
[7] = system: K562
[8] = system: OVCAR-4
[9] = system: HCT-116
[10] = system: KM12
[11] = system: HCT-15
[12] = system: U-251
[13] = system: SR
[14] = system: Malme-3M
[15] = system: SK-MEL-5
[16] = system: SK-MEL-2
[17] = system: HOP-18
[18] = system: MDA-MB-231
[19] = system: MDA-MB-435
[20] = system: MDA-N

SMILES | GI50 [1] | GI50 [2] | GI50 [3] | GI50 [4] | GI50 [5] | GI50 [6] | GI50 [7] | GI50 [8] | GI50 [9] | GI50 [10] | GI50 [11] [µM] | GI50 [12] | GI50 [13] | GI50 [14] | GI50 [15] | GI50 [16] | GI50 [17] | GI50 [18] | GI50 [19] | GI50 [20]
CCOC(=O)C(C[Si](C)(C)C)P(=O)(OCC)OCC (stereo unspecified) | > 100 µM (inactive) | > 100 µM (inactive) | > 100 µM (inactive) | > 100 µM (inactive) | > 100 µM (inactive) | > 100 µM (inactive) | > 100 µM (inactive) | > 100 µM (inactive) | > 100 µM (inactive) | > 100 µM (inactive) | > 100 | > 100 µM (inactive) | > 100 µM (inactive) | > 100 µM (inactive) | > 100 µM (inactive) |  |  |  |  | 
CCOC1C(Br)Cn2c(=O)c3cc4ccccc4cc3c(=O)n2C1C (stereo unspecified) | 55.6 µM (inactive) | 44.9 µM (inactive) | > 100 µM (inactive) | 97.7 µM (inactive) | 55.1 µM (inactive) | 42.5 µM (inactive) | 37.6 µM (inactive) | > 100 µM (inactive) | 58.9 µM (inactive) | > 100 µM (inactive) | 43.6 | > 100 µM (inactive) | 34 µM (inactive) | > 100 µM (inactive) | 31.1 µM (inactive) | > 100 µM (inactive) |  |  |  | 
Cc1cccc(C)c1NC(=O)CCCC(=O)C1CCC/C1=N\NC(=O)C(=O)NN (stereo unspecified) |  | > 100 µM (inactive) | > 100 µM (inactive) |  | > 100 µM (inactive) | > 100 µM (inactive) | > 100 µM (inactive) | > 100 µM (inactive) | > 100 µM (inactive) | > 100 µM (inactive) | > 100 | > 100 µM (inactive) |  | > 100 µM (inactive) | > 100 µM (inactive) | > 100 µM (inactive) | > 100 µM (inactive) |  |  | 
O=C(Cc1ccc(Cl)c(Cl)c1)NCCCN1CCN(CCCN2CCCCC2)CC1 |  | 17.8 µM (inactive) | 17.2 µM (inactive) | 11.1 µM (inactive) | 20.4 µM (inactive) | 19.3 µM (inactive) | 2.17 µM (inactive) | 37.8 µM (inactive) | 16.3 µM (inactive) | 15.8 µM (inactive) | 20.7 | 15.7 µM (inactive) | 11.7 µM (inactive) | 17.6 µM (inactive) | 10.4 µM (inactive) | 6.59 µM (inactive) |  | 12 µM (inactive) | 1.9 µM (inactive) | 2.45 µM (inactive)
CC(=O)Nc1ccc(/C=C2\N=C(c3ccccc3)OC2=O)cc1 |  | 76.7 µM (inactive) | > 100 µM (inactive) | 62.5 µM (inactive) |  | > 100 µM (inactive) | > 100 µM (inactive) | > 100 µM (inactive) | 79.4 µM (inactive) | 68.7 µM (inactive) | 55.7 | > 100 µM (inactive) |  | 6.1 µM (inactive) | 57.8 µM (inactive) | > 100 µM (inactive) | > 100 µM (inactive) |  |  | 
Cc1ccc(-c2c(-c3ccccc3)[nH]c(C)c2C(=O)ONC(=O)c2ccccc2)cc1 |  | 0.673 µM (active) | 5.52 µM (inactive) | 1.67 µM (inactive) | 2.19 µM (inactive) | 5.19 µM (inactive) | 2.55 µM (inactive) | 2.72 µM (inactive) | 2.48 µM (inactive) | 9.68 µM (inactive) | 9.25 | 1.84 µM (inactive) | 1.66 µM (inactive) | 11.4 µM (inactive) | 6.41 µM (inactive) | 3.7 µM (inactive) |  | 3.4 µM (inactive) | 2.19 µM (inactive) | 2.35 µM (inactive)
COc1ccc(C(=O)C(c2ccc(OC)cc2)C2(O)C(=O)Nc3ccc([N+](=O)[O-])cc32)cc1 (stereo unspecified) | > 100 µM (inactive) | 70.8 µM (inactive) | > 100 µM (inactive) | 32.9 µM (inactive) | > 100 µM (inactive) | > 100 µM (inactive) | > 100 µM (inactive) | > 100 µM (inactive) | > 100 µM (inactive) | > 100 µM (inactive) | > 100 | > 100 µM (inactive) | 68.5 µM (inactive) | > 100 µM (inactive) |  | > 100 µM (inactive) |  |  |  | 
COc1ccc2c(c1)CCc1cnn(C3OC(COC(C)=O)C(OC(C)=O)C(OC(C)=O)C3OC(C)=O)c1-2 (stereo unspecified) | 66.2 µM (inactive) | > 100 µM (inactive) | > 100 µM (inactive) | 27.3 µM (inactive) | 76.2 µM (inactive) | 56 µM (inactive) | 14.5 µM (inactive) |  | > 100 µM (inactive) | > 100 µM (inactive) | 38.2 | 22.5 µM (inactive) | 26.1 µM (inactive) | > 10 µM (inactive) | 44.4 µM (inactive) | > 100 µM (inactive) |  |  |  | 
CCOc1cc2c(cnc3c4cc(OC)c(OC)cc4ccc23)cc1OC | > 100 µM (inactive) |  | > 100 µM (inactive) |  | > 100 µM (inactive) | > 100 µM (inactive) | > 100 µM (inactive) | > 100 µM (inactive) | > 100 µM (inactive) | > 100 µM (inactive) | > 100 | > 100 µM (inactive) |  | > 100 µM (inactive) | > 100 µM (inactive) | > 100 µM (inactive) |  |  |  | 
O=C(CP(=O)(O)O)c1cccs1 | > 100 µM (inactive) | > 100 µM (inactive) | > 100 µM (inactive) | > 100 µM (inactive) | > 100 µM (inactive) | > 100 µM (inactive) | > 100 µM (inactive) |  | > 100 µM (inactive) | > 100 µM (inactive) | > 100 | > 100 µM (inactive) |  | > 100 µM (inactive) | > 100 µM (inactive) | > 100 µM (inactive) | > 100 µM (inactive) |  |  | 
CC(=O)OCC(OC(C)=O)C(OC(C)=O)C(OC(C)=O)C(=O)CNn1c(-c2ccccc2)nc2ccc(Br)cc2c1=O (stereo unspecified) | > 100 µM (inactive) | > 100 µM (inactive) |  |  | 87.5 µM (inactive) | > 100 µM (inactive) | > 100 µM (inactive) | > 100 µM (inactive) | > 100 µM (inactive) | > 100 µM (inactive) | > 100 | > 100 µM (inactive) | > 100 µM (inactive) | > 100 µM (inactive) | > 100 µM (inactive) | > 100 µM (inactive) |  |  |  | 
CCCC(=O)CC(C)C(=O)C(=O)NC12CC3CC(CC(C3)C1)C2 (stereo unspecified) |  | > 100 µM (inactive) | > 100 µM (inactive) | 22.3 µM (inactive) | > 100 µM (inactive) | > 100 µM (inactive) | > 100 µM (inactive) | > 100 µM (inactive) |  | > 100 µM (inactive) | > 100 | > 100 µM (inactive) |  | > 100 µM (inactive) | > 100 µM (inactive) | > 100 µM (inactive) | > 100 µM (inactive) |  |  | 
CC(=O)N(N=O)c1ccc(N(N=O)C(C)=O)cc1 | > 100 µM (inactive) | > 100 µM (inactive) |  | > 100 µM (inactive) | > 100 µM (inactive) | > 100 µM (inactive) | > 100 µM (inactive) | > 100 µM (inactive) | > 100 µM (inactive) |  | > 100 | > 100 µM (inactive) | > 100 µM (inactive) | > 100 µM (inactive) | > 100 µM (inactive) | > 100 µM (inactive) |  |  |  | 
O=C1CCSC2=C1SCc1sccc12 | > 100 µM (inactive) | > 100 µM (inactive) | > 100 µM (inactive) | > 100 µM (inactive) | > 100 µM (inactive) | > 100 µM (inactive) | > 100 µM (inactive) | > 100 µM (inactive) |  | > 100 µM (inactive) | > 100 |  |  | > 100 µM (inactive) | > 100 µM (inactive) | > 100 µM (inactive) |  |  |  | 
Brc1c2c(c(Br)c3nsnc13)N=S=N2 |  | 3.83 µM (inactive) | 17.4 µM (inactive) | 17.4 µM (inactive) | 19.1 µM (inactive) | 22.5 µM (inactive) | 10.1 µM (inactive) | 23.1 µM (inactive) | 27.4 µM (inactive) | 46.3 µM (inactive) | 24.6 | 23.1 µM (inactive) | 4.82 µM (inactive) | 31.3 µM (inactive) | 20 µM (inactive) | 20 µM (inactive) |  | 23.4 µM (inactive) | 29.7 µM (inactive) | 26.5 µM (inactive)
O=C(NN1C(=O)C=CC1=O)c1ccccc1Nc1ccccc1C(=O)NN1C(=O)C=CC1=O |  | > 100 µM (inactive) | > 100 µM (inactive) | > 100 µM (inactive) | > 100 µM (inactive) | > 100 µM (inactive) | > 100 µM (inactive) | > 100 µM (inactive) | > 100 µM (inactive) | > 100 µM (inactive) | > 100 | > 100 µM (inactive) | > 100 µM (inactive) | > 100 µM (inactive) | > 100 µM (inactive) | > 100 µM (inactive) |  | > 100 µM (inactive) | > 100 µM (inactive) | > 100 µM (inactive)
O=C(NCCCCCCCCCCCCNC(=O)c1cnc2ccccc2n1)c1cnc2ccccc2n1 | > 100 µM (inactive) | > 100 µM (inactive) |  |  | > 100 µM (inactive) | > 100 µM (inactive) | > 100 µM (inactive) | 13.6 µM (inactive) | 41.5 µM (inactive) | > 100 µM (inactive) | > 100 | 28.8 µM (inactive) |  | > 100 µM (inactive) | 9.59 µM (inactive) | > 100 µM (inactive) | 20.7 µM (inactive) |  |  | 
C[C@H]1O[C@@H](O[C@H]2[C@@H](O)C[C@H](O[C@H]3[C@@H](O)C[C@H](O[C@H]4CC[C@@]5(C)[C@H](CC[C@@H]6[C@@H]5CC[C@]5(C)[C@@H](C7=CC(=O)OC7)[C@@H](O)C[C@]65O)C4)O[C@@H]3C)O[C@@H]2C)C[C@H](O)[C@@H]1O [GITOXIN] |  | 0.116 µM (active) | 0.254 µM (active) | 0.402 µM (active) | 0.107 µM (active) | 0.475 µM (active) | 0.361 µM (active) | 0.271 µM (active) | 0.127 µM (active) | 0.658 µM (active) | 0.593 | 0.258 µM (active) | 0.287 µM (active) | 0.206 µM (active) | 0.118 µM (active) | 0.543 µM (active) |  | 1.2 µM (inactive) | 0.365 µM (active) | 0.266 µM (active)
